Assay results from patent US7420001B2 (Wyeth, priority 2003, dated 2008).
pIC50: −log10 of the molar value.

Key:
MMP-14 = target: T1, MMP-14 (Homo sapiens, UniProt P50281); experiment: In-vitro fluorescence assay of MMP-14 activity; assay type: biochemical; conditions: recombinant human catalytic domain of MMP-14
T1 construct: 20 kDa; purchased Chemicon International, Inc. CC 1041

MMP-2 = target: T2, MMP-2 (Homo sapiens, UniProt P08253); experiment: In-vitro fluorescence assay of MMP-2 activity; assay type: biochemical; conditions: recombinant human MMP-2; read-out: MMP-2 IC50
T2 construct: purchased Oncogene Research Products (Calbiochem) PF023
T2 sequence (P08253 110-660): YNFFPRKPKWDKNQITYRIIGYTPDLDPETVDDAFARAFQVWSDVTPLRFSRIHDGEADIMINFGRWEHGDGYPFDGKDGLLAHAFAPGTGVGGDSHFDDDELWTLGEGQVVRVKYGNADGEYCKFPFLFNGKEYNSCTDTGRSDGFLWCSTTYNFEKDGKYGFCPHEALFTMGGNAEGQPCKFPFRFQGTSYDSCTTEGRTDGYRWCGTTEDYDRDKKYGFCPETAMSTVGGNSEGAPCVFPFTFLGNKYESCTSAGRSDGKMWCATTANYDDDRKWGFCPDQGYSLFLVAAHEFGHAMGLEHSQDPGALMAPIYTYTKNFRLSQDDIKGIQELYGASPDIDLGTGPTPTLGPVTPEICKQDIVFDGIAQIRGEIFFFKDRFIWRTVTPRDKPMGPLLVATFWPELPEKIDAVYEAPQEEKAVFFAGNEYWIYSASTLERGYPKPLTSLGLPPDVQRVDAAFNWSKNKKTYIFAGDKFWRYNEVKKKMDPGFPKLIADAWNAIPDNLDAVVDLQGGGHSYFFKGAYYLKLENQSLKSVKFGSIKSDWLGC

MMP-13 = target: T3, MMP-13 (Homo sapiens, UniProt P45452); experiment: In-vitro fluorescence assay of MMP-13 activity; assay type: biochemical; conditions: recombinant human catalytic domain of MMP-13; read-out: MMP-13 IC50
T3 construct: made in house

MMP-1 = target: T4, MMP-1 (Homo sapiens, UniProt P03956)
T4 sequence (P03956 100-269 limits assumed): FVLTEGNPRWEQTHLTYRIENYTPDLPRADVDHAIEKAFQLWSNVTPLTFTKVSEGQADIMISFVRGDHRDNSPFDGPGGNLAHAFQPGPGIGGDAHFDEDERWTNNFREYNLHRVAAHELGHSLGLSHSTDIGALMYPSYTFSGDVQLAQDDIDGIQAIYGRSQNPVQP

pIC50 (MMP-14) | pIC50 (MMP-2) | pIC50 (MMP-13) | pIC50 (MMP-1) | Compound
7.54 | 7.03 | 7.89 | 4.55 | Cc1c(C(=O)Nc2ccc(-c3ccc(S(=O)(=O)N[C@@H](C(=O)O)C(C)C)cc3)cc2)oc2ccccc12 [Example 74, D-3-Methyl-2-{4′-[(3-methyl-benzofuran-2-carbonyl)-amino]-biphenyl-4-sulfonylamino}-butyric acid]
5.15 | 8.22 | 8.24 | 4.82 | CC(C)[C@H](C(=O)O)N(C)S(=O)(=O)c1ccc(-c2ccc(NC(=O)c3cc4ccccc4o3)cc2)cc1 [Example 77, N-({4′-[(1-benzofuran-2-ylcarbonyl)amino]-1,1′-biphenyl-4-yl}sulfonyl)-N-methyl-D-valine]
4.62 | 7.46 | 7.40 | 3.30 | CN(CC(=O)O)S(=O)(=O)c1ccc(-c2ccc(NC(=O)c3cc4ccccc4o3)cc2)cc1 [Example 79, N-({4′-[(1-Benzofuran-2-ylcarbonyl)amino]-1,1′-biphenyl-4-yl}sulfonyl)-N-methylglycine]
6.30 | 8.60 | 8.96 |  | CC(C)[C@@H](NS(=O)(=O)c1ccc(-c2ccc(OCc3cc4ccccc4o3)cc2)cc1)C(=O)O [Example 141, D-2-[4′-(Benzofuran-2-ylmethoxy)-biphenyl-4-sulfonylamino]-3-methyl-butyric acid]
 | 7.19 | 8.92 |  | COc1c(C#N)ccc2oc(COc3ccc(-c4ccc(S(=O)(=O)N[C@H](C(=O)O)C(C)C)cc4)cc3)c(C)c12 [Example 143, L-2-[4′-(5-Cyano-4-methoxy-3-methylbenzofuran-2-ylmethoxy)-biphenyl-4-sulfonylamino]-3-methyl butyric acid]
 | 6.68 | 8.92 |  | CCc1cccc2oc(COc3ccc(-c4ccc(S(=O)(=O)N[C@H](C(=O)O)C(C)C)cc4)cc3)c(C)c12 [Example 146, L-2-[4′-(4-Ethyl-3-methylbenzofuran-2-ylmethoxy)-biphenyl-4-sulfonylamino]-3-methyl butyric acid]
 | 6.43 | 8.10 |  | Cc1c(COc2ccc(-c3ccc(S(=O)(=O)N[C@@H](C(=O)O)C(C)C)cc3)cc2)oc2ccc(Br)c(OC(C)C)c12 [Example 149, N-({4′-[(5-Bromo-4-isopropoxy-3-methyl-1-benzofuran-2-yl)methoxy]-1,1′-biphenyl-4-yl}sulfonyl)-D-valine]
 | 6.70 | 8.09 |  | COc1c(Br)ccc2oc(CNc3ccc(-c4ccc(S(=O)(=O)N[C@H](C(=O)O)C(C)C)cc4)cc3)c(C)c12 [Example 150, N-[(4′-{[(5-bromo-4-methoxy-3-methyl-1-benzofuran-2-yl)methyl]amino}-1,1′-biphenyl-4-yl)sulfonyl]-L-valine]
 | 7.22 | 8.77 |  | Cc1c(C(=O)Nc2ccc(-c3ccc(S(=O)(=O)N[C@H](C(=O)O)C(C)C)cc3)cc2)oc2ccc3ccccc3c12 [Example 154, L-3-Methyl-2-{4′-[(1-methyl-naphtho[2,1-b]furan-2-carbonyl)-amino]-biphenyl-4-sulfonylamino}-butyric acid]
 | 5.21 | 7.60 |  | COC(=O)C(C)(C)Oc1cccc2oc(C(=O)Nc3ccc(-c4ccc(S(=O)(=O)N[C@H](C(=O)O)C(C)C)cc4)cc3)c(C)c12 [Example 156, L-2-(4′-{[4-(1-Methoxycarbonyl-1-methyl-ethoxy)-3-methyl-benzofuran-2-carbonyl]-amino}-biphenyl-4-sulfonylamino)-3-methyl-butyric acid]
 | 5.69 | 8.06 |  | CCOC(=O)COc1cccc2oc(C(=O)Nc3ccc(-c4ccc(S(=O)(=O)N[C@H](C(=O)O)C(C)C)cc4)cc3)c(C)c12 [Example 157, L-2-{4′-[(4-Ethoxycarbonylmethoxy-3-methyl-benzofuran-2-carbonyl)-amino]-biphenyl-4-sulfonylamino}-3-methyl-butyric acid]
 | 5.74 | 8.06 |  | COC(=O)COc1cccc2oc(C(=O)Nc3ccc(-c4ccc(S(=O)(=O)N[C@H](C(=O)O)C(C)C)cc4)cc3)c(C)c12 [Example 158, L-2-{4′-[(4-Methoxycarbonylmethoxy-3-methyl-benzofuran-2-carbonyl)-amino]-biphenyl-4-sulfonylamino}-3-methyl-butyric acid]
 | 5.45 | 8.07 |  | Cc1c(C(=O)Nc2ccc(-c3ccc(S(=O)(=O)N[C@H](C(=O)O)C(C)C)cc3)cc2)oc2cccc(OCC(=O)O)c12 [Example 159, L-2-{4′-[(4-Carboxymethoxy-3-methyl-benzofuran-2-carbonyl)-amino]-biphenyl-4-sulfonylamino}-3-methyl-butyric acid]
 | 5.34 | 8.02 |  | Cc1c(C(=O)Nc2ccc(-c3ccc(S(=O)(=O)N[C@H](C(=O)O)C(C)C)cc3)cc2)oc2cccc(OCc3cccnc3)c12 [Example 160, L-3-Methyl-2-(4′-{[3-methyl-4-(pyridin-3-ylmethoxy)-benzofuran-2-carbonyl]-amino}-biphenyl-4-sulfonylamino)-butyric acid]
 | 6.42 | 8.21 |  | Cc1c(C(=O)Nc2ccc(-c3ccc(S(=O)(=O)N[C@H](C(=O)O)C(C)C)cc3)cc2)oc2cccc(O)c12 [Example 161, L-2-{4′-[(4-Hydroxy-3-methyl-benzofuran-2-carbonyl)-amino]-biphenyl-4-sulfonylamino}-3-methyl-butyric acid]
 | 5.58 | 7.07 |  | CCn1c(C(=O)Nc2ccc(-c3ccc(S(=O)(=O)N[C@H](C(=O)O)C(C)C)cc3)nc2)nc2ccccc21 [Example 162, L-2-(4-{5-[(1-Ethyl-1H-benzimidazole-2-carbonyl)-amino]-pyridin-2-yl}-benzenesulfonylamino)-3-methyl-butyric acid]
 | 8.24 | 8.51 |  | CC(C)[C@H](NS(=O)(=O)c1ccc(-c2ccc(NC(=O)c3cc(-c4ccc(Cl)cc4)no3)cc2)cc1)C(=O)O [Example 166, (S)-2-(4′-{[3-(4-Chloro-phenyl)-isoxazole-5-carbonyl]-amino}-biphenyl-4-sulfonylamino)-3-methyl-butyric acid]
 | 5.36 | 7.70 |  | Cc1c(C(=O)Nc2ccc(-c3ccc(S(=O)(=O)N[C@H](C(=O)O)C(C)C)cc3)cc2)oc2cccc(OCC(=O)N(C)C)c12 [Example 176, (S)-2-{4′-[(4-Dimethylcarbamoylmethoxy-3-methyl-benzofuran-2-carbonyl)-amino]-biphenyl-4-sulfonylamino}-3-methyl-butyric acid]
 | 5.48 | 7.89 |  | Cc1c(C(=O)Nc2ccc(-c3ccc(S(=O)(=O)N[C@H](C(=O)O)C(C)C)cc3)cc2)oc2cccc(OCc3ccccn3)c12 [Example 178, (S)-3-Methyl-2-(4′-{[3-methyl-4-(pyridin-2-ylmethoxy)-benzofuran-2-carbonyl]-amino}-biphenyl-4-sulfonylamino)-butyric acid]
 | 5.40 | 8.15 |  | Cc1c(C(=O)Nc2ccc(-c3ccc(S(=O)(=O)N[C@H](C(=O)O)C(C)C)cc3)cc2)oc2cccc(OCc3ccncc3)c12 [Example 179, (S)-3-Methyl-2-(4′-{[3-methyl-4-(pyridin-4-ylmethoxy)-benzofuran-2-carbonyl]-amino}-biphenyl-4-sulfonylamino)-butyric acid]

Compound | pIC50 (MMP-14) | pIC50 (MMP-2) | pIC50 (MMP-13) | pIC50 (MMP-1)
O=C(O)CNS(=O)(=O)c1ccc(-c2ccc(NC(=O)c3cc4ccccc4o3)cc2)cc1 [Example 1, N-({4′-[(1-benzofuran-2-ylcarbonyl)amino]-1,1′-biphenyl-4-yl}sulfonyl)glycine] | 4.86 | 7.33 | 7.46 | 
CC(C)[C@H](NS(=O)(=O)c1ccc(-c2ccc(NC(=O)c3cc4ccccc4[nH]3)cc2)cc1)C(=O)O [Example 3] | 5.25 |  |  | 
Cc1c(COc2ccc(-c3ccc(S(=O)(=O)N[C@@H](C(=O)O)C(C)C)cc3)cc2)oc2ccccc12 [Example 139, D-3-Methyl-2-[4′-(3-methyl-benzofuran-2-ylmethoxy)-biphenyl-4-sulfonylamino]-butyric acid] | 5.46 | 7.55 | 8.36 | 
Cc1c(C(=O)Nc2ccc(-c3ccc(S(=O)(=O)N[C@H](C(=O)O)C(C)C)cc3)cc2)oc2cccc(OCCNC(=O)OC(C)(C)C)c12 [Example 177, (S)-2-(4′-{[4-(2-tert-Butoxycarbonylamino-ethoxy)-3-methyl-benzofuran-2-carbonyl]-amino}-biphenyl-4-sulfonylamino)-3-methyl-butyric acid] |  | 5.52 | 7.82 | 
